Paper PMC4469479 (Nature, 2015)

Tests used:
[1] = target: dDATmfc sub^B (Drosophila melanogaster, UniProt Q7K4Y6, D121G/DEL162-202/DEL602-606/INS607VPRG/L415A/S426M/V74A); format: binding
[2] = target: T1, dDATmfc (Drosophila melanogaster, UniProt Q7K4Y6, DEL162-202/DEL602-606/INS607VPRG/L415A/V74A); format: binding
[3] = target: T1, dDATmfc; settings: HEK293S cells; 14C-DA 0.3–60 μM; s.e.m.

NCCc1ccc(Cl)c(Cl)c1 [DCP, 3,4-dichlorophenethylamine] gave a Ki [1] of 0.267 ± 0.02 µM.

Work on COC(=O)[C@H]1[C@@H](OC(=O)c2ccccc2)C[C@@H]2CC[C@H]1N2C [cocaine] yielded a Ki [2] of 33 ± 3 µM.

For NCCc1ccc(O)c(O)c1 [dopamine], the “Vmax of DA transport by dDATmfc” value [3] was 2.4 ± 0.2 pmol/min/10^6 cells.
